# Read-outs that look alike come from different tables or passages of the source. Marks after values point to notes of the source that are not given here.
# [1] = female dogs, Group 4, 4/4 mg/kg/dose, Day −4
# [2] = female dogs, Group 4, 4/4 mg/kg/dose, Day −4 (pre-dose)
# [3] = male dogs, Group 4, 4/4 mg/kg/dose, Day 15
# [4] = male dogs, Group 4, 4/4 mg/kg/dose, Day −4
compound,measurement,setting,value
CCC1(O)C(=O)OCc2c1cc1n(c2=O)Cc2cc3cc4c(cc3nc2-1)OCO4 (stereo not shown) [FL118],MCH Mean,[1],23.4 pg
same,MCHC % Diff,[1],1.8%
same,MCHC Mean,[1],35.7 g/dL
same,MCV % Diff,[1],−1.8%
same,"MPV, mean platelet volume, Mean",[1],11.1 fL
same,PLT (platelet count) % Diff vs Group 1,[1],−10%
same,RDW Mean,[1],13.1%
same,WBC % Diff,[1],23.46%
same,"ALB (albumin), % Diff versus vehicle Group 1",[2],1.8%
same,"ALP (alkaline phosphatase), % Diff versus vehicle Group 1",[2],−19%
same,"ALP, alkaline phosphatase, Mean",[2],129 U/L
same,"ALT (alanine aminotransferase), % Diff versus vehicle Group 1",[2],−8%
same,"ALT, alanine aminotransferase, Mean",[2],25 U/L
same,"AST (aspartate aminotransferase), % Diff versus vehicle Group 1",[2],−11%
same,"AST, aspartate aminotransferase, Mean",[2],31 U/L
same,"BIL-T (total bilirubin), % Diff versus vehicle Group 1",[2],23.23%
same,"CK (creatine kinase), % Diff versus vehicle Group 1",[2],−39%
same,"CK, creatine kinase, Mean",[2],233 U/L
same,"CRE (creatinine), % Diff versus vehicle Group 1",[2],11%
same,"CRE, creatinine, Mean",[2],52 µmol/L
same,"Ca (calcium), % Diff versus vehicle Group 1",[2],−2.36%
same,"Cl (chloride), % Diff versus vehicle Group 1",[2],2%
same,"GGT (gamma-glutamyltransferase), % Diff versus vehicle Group 1",[2],0%
same,"GGT (gamma-glutamyltransferase), Mean",[2],3 U/L
same,"GLB, globulin, Mean",[2],27.3 g/L
same,"K, potassium, Mean",[2],4.3 mmol/L
same,"Na (sodium), % Diff versus vehicle Group 1",[2],1%
same,"Na, sodium, Mean",[2],147 mmol/L
same,"P (inorganic phosphorus), % Diff versus vehicle Group 1",[2],−6.41%
same,"P, inorganic phosphorus, Mean",[2],1.61 mmol/L
same,"TCHO (total cholesterol), % Diff versus vehicle Group 1",[2],−6.71%
same,"TCHO, total cholesterol, Mean",[2],3.66 mmol/L
same,"TG (triglyceride), % Diff versus vehicle Group 1",[2],−11.26%
same,"TG, triglyceride, Mean",[2],0.45 mmol/L
same,"TP, total protein, Mean",[2],57.4 g/L
same,"UREA, urea, Mean",[2],4.17 mmol/L
same,"sGLU (glucose), % Diff versus vehicle Group 1",[2],−0.07%
same,NOAEL,for males,4.4 mg/kg/dose
same,Cl (chloride) % Diff vs Group 1,"male dogs, Group 2, 2.5/[…], Day 15",3%
same,Cl (chloride) % Diff vs Group 1,"male dogs, Group 2, 2.5/[…], Day −4",2%
same,Cl (chloride) % Diff vs Group 1,"male dogs, Group 3, 3.3/[…], Day 15",2%
same,Cl (chloride) % Diff vs Group 1,"male dogs, Group 3, 3.3/[…], Day −4",−1%
same,ALP (alkaline phosphatase) % Diff vs Group 1,[3],−31%
same,ALT (alanine aminotransferase) % Diff vs Group 1,[3],4%
same,"ALT, alanine aminotransferase, Mean",[3],29 L⁻¹
same,AST (aspartate aminotransferase) % Diff vs Group 1,[3],−31%
same,BIL-T (total bilirubin (diasys)) % Diff vs Group 1,[3],31.07%
same,BIL-T (total bilirubin (diasys)) Mean,[3],1.48 L⁻¹
same,CK (creatine kinase) % Diff vs Group 1,[3],−10%
same,"CK, creatine kinase, Mean",[3],281 U/L
same,"GGT (gamma-glutamyltransferase), Mean",[3],3 U/L
same,"GLB, globulin, Mean",[3],28.3* g/L
same,K (potassium) % Diff vs Group 1,[3],−10.3%
same,"K, potassium, Mean",[3],4.4 mmol/L
same,Na (sodium) % Diff vs Group 1,[3],2%
same,"Na, sodium, Mean",[3],148 mmol/L
same,"P, inorganic phosphorus, Mean",[3],1.63 L⁻¹
same,"TCHO, total cholesterol, Mean",[3],4.77 mmol/L
same,TG (triglyceride) % Diff vs Group 1,[3],−15.79%
same,UREA (urea) % Diff vs Group 1,[3],2.96%
same,sGLU (glucose) % Diff vs Group 1,[3],−6.55%
same,"sGLU, glucose, Mean",[3],4.47 L⁻¹
same,"ALB, albumin, Mean",[4],11.0 g/L
same,ALP (alkaline phosphatase) % Diff vs Group 1,[4],−5%
same,"ALP, alkaline phosphatase, Mean",[4],141 L⁻¹
same,ALT (alanine aminotransferase) % Diff vs Group 1,[4],3%
same,"ALT, alanine aminotransferase, Mean",[4],25 L⁻¹
same,AST (aspartate aminotransferase) % Diff vs Group 1,[4],−3%
same,"AST, aspartate aminotransferase, Mean",[4],32 L⁻¹
same,BIL-T (total bilirubin (diasys)) Mean,[4],1.67 L⁻¹
same,CK (creatine kinase) % Diff vs Group 1,[4],15%
same,CRE (creatinine) % Diff vs Group 1,[4],8%
same,Cl (chloride) % Diff vs Group 1,[4],1%
same,K (potassium) % Diff vs Group 1,[4],−2.8%
same,"K, potassium, Mean",[4],4.7 mmol/L
same,Na (sodium) % Diff vs Group 1,[4],0%
same,"Na, sodium, Mean",[4],146 mmol/L
same,"P, inorganic phosphorus, Mean",[4],1.52 L⁻¹
same,TCHO (total cholesterol) % Diff vs Group 1,[4],−2.15%
same,"TCHO, total cholesterol, Mean",[4],4.85 mmol/L
same,TG (triglyceride) % Diff vs Group 1,[4],−8.33%
same,"TG, triglyceride, Mean",[4],0.40 mmol/L
same,"UREA, urea, Mean",[4],4.25 L⁻¹
same,"sGLU, glucose, Mean",[4],4.11 L⁻¹
same,"Total Bilirubin (BIL-T), max increase, females",vs control group,16.14%
same,"Total Bilirubin (BIL-T), max increase, males",vs control group,47.34%
same,"Triglyceride (TG), max decrease, females",vs control group,37.84%
same,"Triglyceride (TG), max decrease, males",vs control group,22.56%

# Reference: patent US20250312469A1 (CANGET BIOTEKPHARMA, priority 2024, published 2025)
